Laboratory results published in the OligoGym collection.
HELM strings list units from the 5' end as sugar, base in round brackets, then linkage (d deoxyribose, r ribose, m 2'-O-methyl, p phosphodiester). Strings are as the collection lists them; they lack the last nucleoside at the 3' end of the tested compound. [moe] = 2'-O-(2-methoxyethyl) (MOE); [sp] = phosphorothioate linkage; [m5C] = 5-methylcytosine

Molecular target: UBE3A-ATS
Test: mouse, dose not given
Settings: ASO

| Substance | 3 h FOB score |
| --- | --- |
| RNA1{[moe](T)[sp].[moe](G)p.[moe](G)p.[moe](T)p.[moe]([m5C])p.d(A)[sp].d(T)[sp].d([m5C])[sp].d(T)[sp].d([m5C])[sp].d(G)[sp].d(G)[sp].d(G)[sp].d(T)[sp].d(A)[sp].[moe](T)p.[moe](A)p.[moe](T)[sp].[moe](A)}$$$$ (last 3' nucleoside missing) | 5.2 score 0-7 |
| RNA1{[moe]([m5C])[sp].[moe](T)p.[moe](T)p.[moe]([m5C])p.[moe](A)p.d([m5C])[sp].d([m5C])[sp].d(A)[sp].d(T)[sp].d(T)[sp].d(T)[sp].d(T)[sp].d(G)[sp].d(A)[sp].d([m5C])[sp].[moe]([m5C])p.[moe](T)p.[moe](T)[sp].[moe]([m5C])}$$$$ (last 3' nucleoside missing) | 1 score 0-7 |
| RNA1{[moe](G)[sp].[moe](T)p.[moe](A)p.[moe](T)p.[moe](G)p.d(G)[sp].d(T)[sp].d(A)[sp].d(T)[sp].d([m5C])[sp].d(T)[sp].d(T)[sp].d(G)[sp].d([m5C])[sp].d(A)[sp].[moe](G)p.[moe](T)p.[moe](A)[sp].[moe](G)}$$$$ (last 3' nucleoside missing) | 5.2 score 0-7 |
| RNA1{[moe](A)[sp].[moe](T)p.[moe](G)p.[moe](T)p.[moe](G)p.[moe]([m5C])p.d(A)[sp].d(T)[sp].d(A)[sp].d([m5C])[sp].d([m5C])[sp].d([m5C])[sp].d(A)[sp].d(G)[sp].d(G)[sp].d(G)[sp].[moe](T)p.[moe](A)[sp].[moe](G)}$$$$ (last 3' nucleoside missing) | 3.5 score 0-7 |
| RNA1{[moe](G)[sp].[moe](G)p.[moe](G)p.[moe](A)p.[moe](A)p.d(G)[sp].d(T)[sp].d([m5C])[sp].d(T)[sp].d(A)[sp].d(G)[sp].d(G)[sp].d(T)[sp].d([m5C])[sp].d(T)[sp].[moe]([m5C])p.[moe](A)p.[moe]([m5C])[sp].[moe](G)}$$$$ (last 3' nucleoside missing) | 3.2 score 0-7 |
| RNA1{[moe](G)[sp].[moe]([m5C])p.[moe](T)p.[moe]([m5C])[sp].d(A)[sp].d(G)[sp].d(T)[sp].d(T)[sp].d(A)[sp].d(G)[sp].d(G)[sp].d(T)[sp].[moe](T)p.[moe](A)p.[moe](G)p.[moe](T)[sp].[moe](G)}$$$$ (last 3' nucleoside missing) | 4 score 0-7 |
| RNA1{[moe]([m5C])[sp].[moe](G)p.[moe](T)p.[moe](G)p.[moe](A)[sp].d(G)[sp].d([m5C])[sp].d(T)[sp].d(A)[sp].d(T)[sp].d([m5C])[sp].d(T)[sp].d(G)[sp].[moe](T)p.[moe](A)p.[moe]([m5C])[sp].[moe](A)}$$$$ (last 3' nucleoside missing) | 1.3 score 0-7 |
| RNA1{[moe](A)[sp].[moe](G)p.[moe](G)p.[moe](A)p.[moe]([m5C])p.d([m5C])[sp].d(T)[sp].d([m5C])[sp].d(A)[sp].d(G)[sp].d(G)[sp].d(A)[sp].d(G)[sp].d(A)[sp].d(T)[sp].[moe](T)p.[moe](G)p.[moe](T)[sp].[moe](A)}$$$$ (last 3' nucleoside missing) | 2.3 score 0-7 |
| RNA1{[moe]([m5C])[sp].[moe](A)p.[moe]([m5C])p.[moe](T)p.[moe]([m5C])p.d(A)[sp].d(T)[sp].d(T)[sp].d(T)[sp].d(T)[sp].d(G)[sp].d(T)[sp].d(T)[sp].d([m5C])[sp].d(A)[sp].[moe](G)p.[moe]([m5C])p.[moe](T)[sp].[moe](T)}$$$$ (last 3' nucleoside missing) | 3 score 0-7 |
| RNA1{[moe](G)[sp].[moe]([m5C])p.[moe](T)p.[moe](G)p.d(A)[sp].d(T)[sp].d([m5C])[sp].d(A)[sp].d([m5C])[sp].d(A)[sp].d(T)[sp].d(T)[sp].d(A)[sp].d([m5C])[sp].[moe]([m5C])p.[moe]([m5C])p.[moe](A)p.[moe](T)[sp].[moe]([m5C])}$$$$ (last 3' nucleoside missing) | 0 score 0-7 |
